Tested on: murine NIH 3T3 cells
Assay: Growth inhibitory effects of prodrugs on NIH 3T3 cells in culture, with or without esterase-containing brain homogenate
Assay type: cell-based
Procedure: The antifolate drug methotrexate was conjugated with a variety of polar lipid carriers via specific linker moieties having specific reactive functional groups. […] The compounds were tested for their growth inhibitory effects on murine NIH 3T3 cells growing in cell culture. […] […] In a second set of experiments was included in the growth media an amount of a brain homogenate containing an enzymatically-active esterase.

What does the source list for `CN(Cc1cnc2nc(N)nc(N)c2n1)c1ccc(C(=O)N[C@@H](CCC(=O)O)C(=O)O)cc1` [Mtx, methotrexate]?
# cells/plate (drug/FBS, cells incubated 1 hour at 37° C., cell growth and survival determined 70 hours after drug addition): 0.16 × 10^6 cells/plate; # cells/plate (drug/FBS, cells incubated 2 hours at 37° C., cell growth and survival determined 72 hours after drug addition): 0.13 × 10^6 cells/plate; # cells/plate (drug/brain extract, cells incubated 1 hour at 37° C., cell growth and survival determined 70 hours after drug addition): 0.09 × 10^6 cells/plate; # cells/plate (drug/brain extract, cells incubated 2 hours at 37° C., cell growth and survival determined 72 hours after drug addition): 0.06 × 10^6 cells/plate

Reference: patent US7423010B2, “Nonporous microparticle-prodrug conjugates for treatment of infection” (Oregon Health & Science University, priority 1994, dated 2008)
